Measured values from US20240391870A1 (Arcturus Therapeutics, Inc., priority 2023, published 2024).
Read-outs that look alike come from different tables or passages of the source.

Key:
factor VII = assay: Factor VII knock down evaluation (LNP with FVII siRNA); assay type: in vivo, Balb/C mice; settings: Table 3; 0.03 mg/kg
Method in brief: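 Female Balb/C mice, 7–8 weeks old, received FVII siRNA lipid nanoparticles intravenously at 0.03 or 0.01 mg/kg. Plasma was collected 48 h later and FVII protein measured by chromogenic assay at 405 nm against a control plasma calibration curve. Levels are relative to saline-treated controls.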

hEPO = hEPO mRNA expression evaluation (hEPO-LNPs); assay type: in vivo, Balb/c mice; settings: Table 3; 0.3 mg/kg
[1] = Lipid nanoparticle size, PDI and encapsulation; assay type: physicochemical; settings: Table 3; for Size (nm): lipid nanoparticle; for EE %: lipid nanoparticle encapsulation
Protocol: In the context of nucleic acids, full encapsulation may be determined by performing a membrane-impermeable fluorescent dye exclusion assay, which uses a dye that has enhanced fluorescence when associated with nucleic acid. Encapsulation is determined by adding the dye to a lipid formulation, measuring the resulting fluorescence, and comparing it to the fluorescence observed upon addition of a small amount of nonionic detergent. Detergent-mediated disruption of the lipid layer releases the encapsulated nucleic acid, allowing it to interact with the membrane-impermeable dye. Nucleic acid encapsulation may be calculated as E=(I0−I)/I0, where I and I0 refer to the fluorescence intensities before and after the addition of detergent.

[2] = mouse, in vivo
[3] = Lipid nanoparticle size, PDI and encapsulation; assay type: physicochemical; settings: Table 3
[4] = Measured pKa in the indicated formulation
Protocol: Measured pKa values were determined based on the pH measured in the indicated formulation (i.e., EPO or FVII formulation).

[5] = In vivo biodegradability assay (lipid in liver); settings: Table 3; liver tissue, 0.3 mg/kg dose

| SMILES | FVII KD % @ 0.03 mg/kg (factor VII) | EPO expression in ng/mL @ 0.3 mg/kg (hEPO) | Size (nm) [1] | EE % [1] | Invivo lipid degradability ng/g of Liver tissue @ 0.3 mg/kg dose [2] | PDI [3] | pKa [4] | Invivo lipid degradability ng/g of Liver tissue @ 0.3 mg/kg dose [5] | pKa ([4]; Table 3, formulation not indicated) |
| --- | --- | --- | --- | --- | --- | --- | --- | --- | --- |
| Cc1ccc(CCC(C)C(=O)OCC(COC(=O)C(C)CCc2ccc(C)cc2)OC(=O)CCCN(CCCC(=O)OC(COC(=O)C(C)CCc2ccc(C)cc2)COC(=O)C(C)CCc2ccc(C)cc2)C(=O)SCCCN(C)C)cc1 (stereo not shown) [Lipid 63, ((4,4′-((((3-(dimethylamino)propyl)thio)carbonyl)azanediyl)bis(butanoyl))bis(oxy))bis(propane-2,1,3-triyl)tetrakis(2-methyl-4-(p-tolyl)butanoate)] | 76.17% | 4601 ng/mL | 82.65 nm | 85.9% | 603 ± 57.6 ng/g | 0.046 |  |  |  |
| CC1CCC(CCC(=O)OCC(C)(COC(=O)CCC2CCC(C)CC2)COC(=O)CCN(CCCCCN(C)C)CCC(=O)OCC(C)(COC(=O)CCC2CCC(C)CC2)COC(=O)CCC2CCC(C)CC2)CC1 (stereo not shown) [Lipid 50, (((3,3′-((5-(dimethylamino)pentyl)azanedivl)bis(propanovl))bis(oxy))bis(methylene))bis(2-methylpropane-2,1,3-triyl)tetrakis(3-(4-methylcyclohexyl) propanoate)] | 93.5% | 579.2 ng/mL | 97.08 nm | 94.7% |  | 0.13 | 7.04 | 28100 ng/g |  |
| CCCCCCC(C)(C)C(=O)OCC(COC(=O)CCCN(CCCC(=O)OCC(COC(=O)C(C)(C)CCCCCC)COC(=O)C(C)(C)CCCCCC)C(=O)SCCCN(C)C)COC(=O)C(C)(C)CCCCCC [Lipid 55] | 72.17% | 10312.89 ng/mL | 71.78 nm | 93.0% |  | 0.103 | 6.59 | 63300 ng/g |  |
| CCn1cc(CCC(C)C(=O)OCC(COC(=O)C(C)CCc2cn(CC)c3ccccc23)OC(=O)CCCN(CCCC(=O)OC(COC(=O)C(C)CCc2cn(CC)c3ccccc23)COC(=O)C(C)CCc2cn(CC)c3ccccc23)C(=O)SCCCN(C)C)c2ccccc21 (stereo not shown) [Lipid 43, ((4,4′-((((3-(dimethylamino)propyl)thio)carbonyl)azanediyl)bis(butanoyl))bis(oxy))bis(propane-2,1,3-triyl)tetrakis(4-(1-ethyl-1H-indol-3-yl)-2-methylbutanoate)] | 15.24% | 14.3 ng/mL | 92.35 nm | 90% |  | 0.05 |  | 1970 ± 379 ng/g | 6.33 |
| CN(C)CCCSC(=O)N(CCCC(=O)OCC(C)(COC(=O)CCC1CCCCC1)COC(=O)CCC1CCCCC1)CCCC(=O)OCC(C)(COC(=O)CCC1CCCCC1)COC(=O)CCC1CCCCC1 [Lipid 53, ((4,4′-((((3-(Dimethylamino)propyl)thio)carbonyl)azanediyl)bis(butanoyl))bis(oxy))bis(methylene))bis(2-methylpropane-2,1,3-triyl)tetrakis(3 cyclohexylpropanoate)] | 85.45% | 15844.04 ng/mL | 85.94 nm | 93.1% |  | 0.076 | 6.93 | 14200 ng/g |  |
